Results taken from patent US4837228A, “Antiinflammatory and antimicrobial compounds and compositions” (The University of Mississippi, priority 1982, dated 1989).
Values after ≈ are worked out from the molar mass of the structure shown. “Also recorded” adds a separate entry of the source. Like-named read-outs stand apart in the source and are kept apart here.

How the values were obtained:
[1] = system: carrageenan-induced rat paw edema; experiment: carrageenan-induced rat paw edema test, intraperitoneal dosing; format: in vivo; set-up: key to mean difference in volume (MDV): post-injection minus pre-injection mean paw volume; key to group mean difference score: post-injection minus pre-injection paw volume score; conditions: for percent increase in paw volume / percent of control / mean difference in volume (MDV): Table 1; for group mean difference score / difference of mean scores versus vehicle control (Duncan's test) / difference of mean scores (Duncan's test): Table 3
Description: Two methods were used to assess the antiinflammatory activity of the compounds of the invention: the carrageenan-induced rat paw edema test and, the erythrocyte membrane stabilization assay.
In the Rat Paw Edema Test, the rats utilized were divided into test groups of six to eight animals, weighed and marked so that individual rats could be identified; one hour before testing all rats were given a 700 mg/kg intraperitoneal injection of ethyl urethane in distilled water to render them tractable during testing. A circle was drawn, with a felt-tipped marker, around the hind leg of each rat just above the ankle, and each rat was dosed with a test or control compound by intraperitoneal injection. Negative control groups received the vehicle; while positive control groups received a dose of phenylbutazone (PBZ) as shown in Table II. Test compounds were given at doses of 60, 120, 240 and 480 mg/kg. The positive controls were given at 120 mg/kg and 60 mg/kg. Phenylbutazone was prepared for injection by suspending it in normal saline using Tween 60. The rats were then held in group cages for 30 minutes. The volume of the left hind paw was measured using a mercury displacement pleysmograph. The paw is dipped into the mercury until the mercury touches the line above the ankle. Mercury is then withdrawn until the mercury returns to its original level. The amount of mercury removed is measured in milliliters (ml). The mercury can be measured accurately to 0.01 ml. This left hind paw was then injected with 0.1 ml of a 5% w/v solution of viscous carageenan in normal saline. The injection was given between the metatarsal bones using a 27 gauge needle, and the rats then held in group cages for 3 hours. The volume of the left hind paws was measured again in the pleysmograph. The results were computed in the following manner:
a. A mean is taken for both the pre-injection and post-injection paw volume of each test group.
b. The mean difference in volume (MDV) for each test group is computed by subtracting the pre-injection means from the post-injection mean.
c. The percent of control is computed for each test [formula] The percent of control is used to compare the efficacy of the various drug treatments.
d. The percent increase in paw volume is calculated for each group as: [formula] The percent increase is used to compare the amount of edma observed in one experiment to the amount of edma observed in other experiments.
The data from the rat paw test were further analyzed using a one-way analysis of varience (ANOVA) and Duncan's New Multiple Range Test. The pre-injection score of each animal was subtracted from his post-injection score and an analysis of the different scores were conducted.
The procedure described above was followed. […] The vehicle control used was Tween 60, Arlacel and distilled water prepared without CBC(II).

[2] = system: erythrocyte (heat-induced hemolysis); experiment: erythrocyte membrane stabilization assay (heat-induced erythrocyte hemolysis); format: cell-based
Procedure, shortened: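 In vitro anti-inflammatory screen measuring stabilization of erythrocytes against heat-induced hemolysis, using 40% or 20% RBC suspensions. Compounds dissolved in physiologic saline or suspended in 2% ethanol in saline, pH adjusted to 7.4.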

[3] = inducement of hypothermia in mice (rectal temperature); format: in vivo; conditions: 100 mg/kg i.p.
Description: CBC (100 mg/kg) was prepared in emulsion form with 3% Tween 60 and 3% Arlacel in normal saline (0.9%) in such a way as to permit a volume of […] of body weight to be injected intraperitoneally into male mice weighing between 32 and 38 grams.
The animals were divided into groups of 10, and body temperatures were recorded with a multichannel Yellow Springs Telethermometer and Thermistor probes. During the experiment, the mice were confined in plastic restraint tubes. They were allowed 45-60 min. for adaption to the restraint tubes and to rectal thermister before a pre-drug baseline temperature reading was taken. Body temperature readings were obtained at 0.5, 1.0, 2.0, 3.0 and 4.0 hrs. post-CBC administration.
The mean (±S.E.) decrease in temperature from the preinjection baseline reading for saline-, vehicle-, and CBC-treated mice were calculated and statistical analyses were conducted using the two-tailed Student's t test.

[4] = CNS screen in unanesthetized mice; format: in vivo; conditions: doses as large as 800 mg/kg
Bacillus subtilis = experiment: MIC, two-fold (broth) serial dilution, B. subtilis; format: cell-based; conditions: Bacillus subtilis, read-out: MIC
Procedure, shortened: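 Qualitative: agar well diffusion. Quantitative: two-fold (broth) serial dilution → MIC. Inoculum = 1 loop-full, 1:10 dilution of 24-h broth culture in sterile water; fungi/M. smegmatis 48–72 h incubation. Controls: streptomycin sulfate (antibacterial), amphotericin B (antifungal).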

Mycobacterium smegmatis = experiment: agar well diffusion assay, M. smegmatis; format: cell-based; conditions: from edge of agar well
Description: Both qualitative and quantitative screens were performed. Qualitative screening was accomplished using the agar well diffusion assay technque while quantitative screening was accomplished by the two-fold (broth) serial dilution method to determine the minimum inhibitory concentration (MIC). Innoculation was accomplished with one loop-full of a 1:10 dilution of the 24-hour-old broth culture, (fungal cultures and M.smegmatis more often required 48 to 72 hours of incubation) of the test organisms in sterile water. Streptomycin sulfate was used as a positive control for antibacterial activity while amphitericin B was used as an antifungal positive control. Organisms utilized in the screens included gram-positive, gram-negative, and acid-fast bacteria as well as different types of fungi. […] An intermediate type activity is seen where R is hydrogen. However, where R is lengthened up to C15 a decrease in activity was noted. Total saturation of the two double bonds in the compounds having a methyl side chain lead, in most cases, to an increase in both antifungal and antibacterial activity.

[5] = Rattus norvegicus, ip, read-out: inhibition of carrageenan-induced rat paw edema

Question: Which results are given for `CCCCCc1cc(O)c2c(c1)OC(C)(CCC=C(C)C)C=C2` (stereo not shown) [CBC (I), 2-methyl-2(4'methyl-pent-3'-enyl)-5-hydroxy-7-pentyl chromene]?
Answer: inhibition at 120 mg/kg [1, 5]: 70%; inhibition at 240 mg/kg [1, 5]: 86%; inhibition at 480 mg/kg ([1]; Rattus norvegicus, ip, Table 5, 480 mg/kg i.p.): 100%; percent increase in paw volume ([1]; 120 mg/kg i.p.): 12.729%; percent of control ([1]; 120 mg/kg i.p.): 30.000%; mean difference in volume (MDV) ([1]; 120 mg/kg i.p., paw volume measured in ml): 0.139; mean difference in volume (MDV) ([1]; 240 mg/kg i.p.): 0.004; percent increase in paw volume ([1]; 240 mg/kg i.p.): 0.365%; percent of control ([1]; 240 mg/kg i.p.): 0.927%; mean difference in volume (MDV) ([1]; 480 mg/kg i.p.): -0.043; percent increase in paw volume ([1]; 480 mg/kg i.p.): -3.708%; percent of control ([1]; 480 mg/kg i.p.): -9.189%; group mean difference score ([1]; 120 mg/kg): 0.139; difference of mean scores versus vehicle control (Duncan's test) ([1]; 120 mg/kg, ** p 0.01): 0.324; group mean difference score ([1]; 240 mg/kg): 0.004; difference of mean scores versus vehicle control (Duncan's test) ([1]; 240 mg/kg, ** p 0.01): 0.458; group mean difference score ([1]; 480 mg/kg): 0.043; difference of mean scores versus vehicle control (Duncan's test) ([1]; 480 mg/kg, ** p 0.01): 0.505; difference of mean scores (Duncan's test) ([1]; CBC 120 mg/kg versus CBC 240 mg/kg, * p 0.05): 0.134; difference of mean scores (Duncan's test) ([1]; CBC 120 mg/kg versus CBC 480 mg/kg, ** p 0.01): 0.181; difference of mean scores (Duncan's test) ([1]; CBC 120 mg/kg versus PBZ 120 mg/kg): 0.033; difference of mean scores (Duncan's test) ([1]; CBC 240 mg/kg versus CBC 480 mg/kg): 0.047; antiinflammatory effect in words ([1]; i.p.): strong antiinflammatory effects; significance of difference (ANOVA, Duncan's test) ([1]; i.p., difference scores, listed as CBC): The 120 mg/kg dose of CBC differed significantly from the 240 and 480 mg/kg doses of CBC; also recorded: the 480 mg/kg dose of CBC differed significantly from the 120 mg/kg dosage of PBZ; inhibition at 12.5 µM ([2]; Erythrocyte, Table 8, 1.25 × 10^-5 M): 55%; inhibition at 25 µM ([2]; Erythrocyte, Table 8, 2.5 × 10^-5 M, read-out: inhibition of heat-induced erythrocyte hemolysis): 67%; inhibition at 50 µM ([2]; Erythrocyte, Table 8, 5 × 10^-5 M): 79%; inhibition at 100 µM ([2]; Erythrocyte, Table 9 Test 2 (40% RBC), 1.0 × 10^-4 M, read-out: percent inhibition of heat-induced erythrocyte hemolysis): 40%; inhibition at 20 µM ([2]; Erythrocyte, Table 9 Test 2 (40% RBC), 2.0 × 10^-5 M, read-out: percent inhibition of heat-induced erythrocyte hemolysis): 26%; inhibition at 20 µM ([2]; Erythrocyte, Table 9 Test 3 (20% RBC), 2.0 × 10^-5 M, read-out: percent inhibition of heat-induced erythrocyte hemolysis): 26%; inhibition at 2 µM ([2]; Erythrocyte, Table 9 Test 3 (20% RBC), 2.0 × 10^-6 M, read-out: percent inhibition of heat-induced erythrocyte hemolysis): 7%; inhibition at 100 µM ([2]; Erythrocyte, read-out: inhibition of heat-induced erythrocyte hemolysis, Table 8, 1 × 10^-4 M): 98%; inhibition at 100 µM ([2]; Erythrocyte, read-out: percent inhibition of heat-induced erythrocyte hemolysis, Table 9 Test 3 (20% RBC), 1.0 × 10^-4 M): 37%; inhibition at 20 µM ([2]; Erythrocyte, 2×10^-5 M, read-out: inhibition of heat-induced red cell hemolysis): 26%; inhibition at 100 µM ([2]; Erythrocyte, 10^-4 M, read-out: inhibition of heat-induced red cell hemolysis): 35%; percent inhibition of heat-induced erythrocyte hemolysis ([2]; Table 9 Test 3 (20% RBC), 1.0 × 10^-4 M, 100 µM, listed as Cannabichromene): 33%; times more protective of red cell membranes than an equivalent amount of PBZ ([2]; actual activity, may have been): 3 to 30 times; time of peak hypothermic effect [3]: within the first two hours; mean (±S.E.) decrease in rectal temperature ([3]; 0.5 hrs): 1.86 ± 0.18 °0; mean (±S.E.) decrease in rectal temperature ([3]; 1.0 hrs): 2.52 ± 0.26 °0; mean (±S.E.) decrease in rectal temperature ([3]; 2.0 hrs): 1.93 ± 0.21 °0; mean (±S.E.) decrease in rectal temperature ([3]; 3.0 hrs): 1.53 ± 0.21 °0; mean (±S.E.) decrease in rectal temperature ([3]; 4.0 hrs): 1.61 ± 0 °0; hypothermia, significance versus controls ([3]; listed as CBC): significantly different from saline controls at all readings; also recorded: significantly different from vehicle controls at 0.5, 1.0 and 4.0 hrs; effects on the CNS screen [4]: No significant effects; MIC (Bacillus subtilis; 24 h): 0.39 µg/mL (≈ 1.24 µM); MIC (Bacillus subtilis; 48 h): 0.78 µg/mL (≈ 2.48 µM); width of inhibition zone (Mycobacterium smegmatis; 24 hr): 15. mm; width of inhibition zone (Mycobacterium smegmatis; 48 hr): 12. mm
